US20260159826A1, “METHOD OF MODIFYING CELLS” (ROYAL MELBOURNE INSTITUTE OF TECHNOLOGY, priority 2022, published 2026)

Experiments:
HUVEC monolayers [1] = assay: Intracellular cAMP (cyclic AMP XP assay) in SRBW mechanostimulated cells with Ca2+ inhibitors and chelators; format: cell-based, human; settings: for cAMP release: SRBW pretreatment in the presence of extracellular calcium, then sequential treatment, FIG. 2(e-iv), 2(e-v); for cAMP levels under SRBW mechanostimulation: pretreatment with BAPTA-AM and TPEN together, FIG. 2(e-ii)
Experimental: (§1) Endothelial cells were cultured in Endothelial Cell Growth Medium-2 (EGM™2) BulletKit™ in a humidified incubator maintained at 37° C. and 5% CO2. The cells were grown in a standard T25 flask until they reached 80-90% confluency, following which they were detached using 0.05% trypsin-EDTA, reseeded in the culture plates at a density of 5000 cells/cm2 and incubated until they reached 90-95% confluency. The confluent monolayer is then exposed to the SRBW irradiation at the prescribed input power and duration. The cells were immediately processed for analysis upon removal of the acoustic field at various post-exposure incubation timepoints.
cAMP concentrations were measured through a cyclic AMP XP™ assay. Briefly, the EC monolayers were washed in Tyrode's buffer (137mMsodium chloride, 12mMsodium bi-carbonate, 5.5 mM glucose, 2 mM potassium chloride, 1mMmagnesium chloride and 0.3 mM disodium hydrogen phosphate) at pH 7.4 supplemented with […] IBMX—a phosphodiesterase inhibitor, to prevent the hydrolysis of cAMP. The cells were then exposed to the SRBW followed by incubation at different time points, after which the cells were lysed in 100 μl of lysis buffer that was supplied with the kit. 25 μl of the cell lysate and HRP-linked cAMP solution was subsequently transferred into the cAMP assay microtiter plates provided and incubated for 3 hrs at room temperature. Following incubation, the plate was washed four times and the liquid discarded. 100 μl of the supplied 3,3′,5,5″-tetramethylbenzidine (TMB) was then added and the solution incubated in the dark for 15 mins. The reaction was ceased by adding 100 μl of the provided STOP solution and its absorbance measured at 450 nm using a spectrophotometric plate reader (CLARIOstar, BMG LabTech, Mornington, VIC, Australia). The average of three measurements per treatment group was taken for cells from each individual culture, from which the cAMP concentrations can be calculated using a standard curve.

THP-1 cells = assay: Wash assay (adherence assay) of SRBW stimulated monocytes pretreated with inhibitors/chelators; format: cell-based; settings: SRBW Treatment 4, 36 hours post exposure, BAPTA-AM 20 μM, Thapsigargin 300 nM, TPEN 1 mM, GGTI-298 15 μM, HJC0197 25 μM, FIG. 18, 19
Experimental: Cell culture and Mechanostimulation: THP-1 cells were obtained from CellBank (Children Medical Research institute, NSW) and grown in suspension in RPMI+Glutamax supplemented with 10% (v/v) heat-inactivated FBS with 1% penicillin-streptomycin in a humidified 37° C., 5% CO2 incubator. Low passage (passage 15 or less) cells were seeded at cell density ranging from 0.5×10^5-0.5×10^6 per cm^2. The cells were then stimulated with SRBW at a frequency of 10 Mhz and at the indicated input power and duration. The cells were stimulated and processed at different post-exposure incubation times (24 h, 36 h, 48 h, 72 h, Day 5, Day 7, Day 9).
Wash Assay: Control (untreated) and treated cells were initially characterised by wash-assay or adherence assay. Undifferentiated THP1 cells were non-adherent cells. Accordingly, cells were initially characterised by determining the percentage of adherent cells. The spent media from control and treated wells were carefully collected into labelled centrifuge tubes. The wells were washed three times with media. After each wash, the wash media was collected into corresponding centrifuge tubes. The tubes were then centrifuged at 250×g for 5 minutes. The supernatant was carefully removed, and the pellet was homogeneously mixed with 1×PBS. The cells collected from spent and wash media were counted trypan blue exclusion assay using a hemocytometer. The percentage of adherent cells was calculated by (number of cells from control wells—number of cells from treated wells/number of cells from control wells)×100. The viability was also determined using the same. The change in the cellular morphology was also recorded using Nikon.

HUVEC monolayers [2] = assay: VE-cadherin remodelling, CAB formation, linearity index and AJ length in SRBW mechanostimulated cells with pathway inhibitors; format: cell-based, human; settings: for Linearity index / AJ length (adhesion site length) / CAB formation: SRBW 8 mins at 1.5 W, GGTI-298 15 μM, NSC23766 10 μM; for Linearity index / AJ length (adhesion site length): 30 mins post exposure; for Linearity index: FIG. 6(b); for AJ length (adhesion site length): FIG. 6(c)
HUVEC monolayers [3] = format: cell-based, human; settings: SRBW 8 mins at 1.5 W; in the presence of piezo channel inhibitor; FIG. 4(b)
Experimental: as §1
Free cytosolic calcium levels were determined using the fluorescent calcium indicator Fura-2AM. In brief, the EC monolayers were incubated in […] Fura-2AM in Opti-MEM™ reduced serum medium supplemented with 2% (vol/vol) heat-inactivated FBS at 37° C. in the dark. […] The fluorescence emission intensity at 510 nm in individual wells at excitation wavelengths of 340 and 380 nm were measured using a spectrophotometric plate reader (CLARIOstar® BMG LabTech, Mornington, VIC, Australia). The ratio of Fura-2 AM fluorescence emission in response to 340 nm and 380 nm excitation (340/380) was calculated and expressed in terms of the fold change with respect to that of the respective control (unexcited) cells. […]

endothelial cells = assay: Stress fibre (SF) formation after SRBW exposure under ROCK inhibition; format: cell-based, human; settings: initial sonochallenge phase, early times (<0.3 hrs) after SRBW; data not shown

c1ccc(CN(CCN(Cc2ccccn2)Cc2ccccn2)Cc2ccccn2)nc1 [TPEN, N,N,N′,N′-tetrakis(2-pyridinylmethyl)-1,2-ethanediamine]
cAMP release (HUVEC monolayers [1]): affected | cAMP levels under SRBW mechanostimulation (HUVEC monolayers [1]): increased under the SRBW mechanostimulation only when extracellular calcium is present | number of adherent cells (THP-1 cells): failed to transform to adherent cells

C[C@H](CCC(=O)O)C[C@H](C)C[C@H](C)C(=O)/C=C(\O)[C@H](C)C[C@H](C)C/C=C/[C@@H](C)[C@@H](O)[C@@H](C)[C@@H](O)C[C@@H]1CC[C@@](C)([C@H]2CC[C@@](C)([C@@H](C)O)O2)O1 [ionomycin]
cAMP release (HUVEC monolayers [1]): affected | cAMP levels (HUVEC monolayers [1]; SRBW pretreatment, then chelation/inhibition, then ionomycin added, FIG. 2(e-iii), 40-50 mins): cAMP levels were observed to rise

Cc1ccc(C)c(CSc2nc(C3CCCC3)c(C#N)c(=O)[nH]2)c1 [HJC0197, 4-cyclopentyl-2-[[(2,5-dimethylphenyl)methyl]thio]-1,6-dihydro-6-oxo-5-pyrimidinecarbonitrile]
number of adherent cells (THP-1 cells): significantly reduced

COC(=O)[C@H](CC(C)C)NC(=O)c1ccc(NC[C@@H](N)CS)cc1-c1cccc2ccccc12.O.O=C(O)C(F)(F)F [GGTI-298, N-[[4-(2-(R)-amino-3-mercaptopropyl)amino]-2-naphthylbenzoyl]leucine methyl ester trifluoroacetate salt hydrate]
Linearity index (HUVEC monolayers [2]): departure from linearity | AJ length (adhesion site length) (HUVEC monolayers [2]): increased adhesion site length | CAB formation (HUVEC monolayers [2]; data not shown): only limited CAB formation | number of adherent cells (THP-1 cells): significantly reduced

N.N.N.N.N.N.N.N.N.N.N.N.N.N.[Cl-].[Cl-].[Cl-].[Cl-].[Cl-].[Cl-].[O-2].[O-2].[Ru+3].[Ru+3].[Ru+4] [ruthenium red]
intracellular calcium under the high frequency excitation (HUVEC monolayers [3]): abatement of intracellular calcium

CC(=O)OCOC(=O)CN(CC(=O)OCOC(C)=O)c1ccccc1OCCOc1ccccc1N(CC(=O)OCOC(C)=O)CC(=O)OCOC(C)=O [BAPTA-AM, 1,2-bis(2-aminophenoxy)ethane-N,N,N′,N′-tetraacetic acid tetrakis(acetoxymethyl ester)]
cAMP release (HUVEC monolayers [1]): not suppressed | cAMP levels under SRBW mechanostimulation (HUVEC monolayers [1]): increased under the SRBW mechanostimulation only when extracellular calcium is present | number of adherent cells (THP-1 cells): reduced significantly

C[C@@H](N)[C@H]1CC[C@H](C(=O)Nc2ccncc2)CC1.Cl.Cl [Y27632, (R)-(+)-trans-4-(1-aminoethyl)-N-(4-pyridyl)cyclohexanecarboxamide dihydrochloride]
stress fibre (SF) formation (endothelial cells): SF attenuation

CCN(CC)CCCC(C)Nc1nc(C)cc(Nc2ccc3nc(C)cc(N)c3c2)n1.Cl.Cl.Cl (racemic) [NSC23766, N6-[2-(4-diethylamino-1-methyl-butylamino)-6-methyl-pyrimidin-4-yl]-2-methyl-quinoline-4,6-diamine trihydrochloride]
Linearity index (HUVEC monolayers [2]): departure from linearity | AJ length (adhesion site length) (HUVEC monolayers [2]): increased adhesion site length | CAB formation (HUVEC monolayers [2]; data not shown): only limited CAB formation

CCCCCCOC(=O)[C@]1(O)C[C@H]2O[C@]1(C)n1c3ccccc3c3c4c(c5c6ccccc6n2c5c31)C(=O)NC4 [KT5720, (9S,10S,12R)-2,3,9,10,11,12-hexahydro-10-hydroxy-9-methyl-1-oxo-9,12-epoxy-1H-diindolo[1,2,3-fg:3′,2′,1′-kl]pyrrolo[3,4-i][1,6]benzodiazocine-10-carboxylic acid hexyl ester]
VE-cadherin remodelling and CAB formation (HUVEC monolayers [2]; treated prior to SRBW mechanostimulation, data not shown): quelled
